Drawing on patent publication US10428104B2, “Substituted nucleoside derivatives useful as anticancer agents” (Pfizer Inc., priority 2015, dated 2019), this text covers IC50 for 22 compounds.

SMILES strings stand for the structures. pIC50: −log10 of the molar value.

Chain of PRMT5/MEP50 protein complex (O14744 other isoform, or with tags, fused parts or gaps): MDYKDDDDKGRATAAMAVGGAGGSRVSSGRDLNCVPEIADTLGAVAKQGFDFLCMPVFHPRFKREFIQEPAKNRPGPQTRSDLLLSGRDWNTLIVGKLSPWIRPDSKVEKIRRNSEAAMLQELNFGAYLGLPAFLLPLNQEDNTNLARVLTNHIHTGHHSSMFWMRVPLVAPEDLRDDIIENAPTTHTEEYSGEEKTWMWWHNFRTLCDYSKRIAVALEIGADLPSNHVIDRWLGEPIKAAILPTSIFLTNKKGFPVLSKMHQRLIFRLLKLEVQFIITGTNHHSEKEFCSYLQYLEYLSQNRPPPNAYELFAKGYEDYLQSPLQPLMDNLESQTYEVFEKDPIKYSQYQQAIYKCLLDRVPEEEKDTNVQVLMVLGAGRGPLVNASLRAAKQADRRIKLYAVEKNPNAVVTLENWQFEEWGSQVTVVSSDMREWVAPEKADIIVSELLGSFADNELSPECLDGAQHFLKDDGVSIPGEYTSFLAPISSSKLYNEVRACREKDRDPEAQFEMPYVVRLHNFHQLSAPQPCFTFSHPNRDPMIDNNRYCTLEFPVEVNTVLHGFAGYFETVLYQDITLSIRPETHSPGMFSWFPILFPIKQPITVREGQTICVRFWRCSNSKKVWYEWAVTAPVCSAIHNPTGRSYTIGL
Chain of PRMT5/MEP50 protein complex (Q9BQA1 whole entry partner): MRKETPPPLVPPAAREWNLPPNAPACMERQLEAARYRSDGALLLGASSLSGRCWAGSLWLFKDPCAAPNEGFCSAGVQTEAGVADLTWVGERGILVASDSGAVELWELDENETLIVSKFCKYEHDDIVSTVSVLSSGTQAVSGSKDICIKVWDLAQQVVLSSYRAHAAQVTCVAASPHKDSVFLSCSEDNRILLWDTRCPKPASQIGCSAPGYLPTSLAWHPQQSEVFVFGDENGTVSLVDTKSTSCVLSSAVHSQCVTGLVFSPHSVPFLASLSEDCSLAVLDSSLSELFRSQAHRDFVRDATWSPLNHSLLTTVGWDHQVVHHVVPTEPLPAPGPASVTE

The experiment has as its target PRMT5/MEP50 protein complex (Homo sapiens (Human), UniProt O14744). Description: PRMT5 biochemical assay (3H-SAM methylation of H4(1-21) peptide, filter plate scintillation counting). Particulars: PRMT5 enzyme inhibition; 10 nM PRMT5/MEP50 complex, 200 nM H4(1-21) peptide, 1 uM SAM, 25 minute incubation at room temperature. On the procedure:
Following dilution, 1 ul was added to an empty 96-well microtiter plate. PRMT5/MEP50 protein complex was combined with H4(1-21) peptide ([…]) in PRMT5 assay buffer (50 mM Tris pH 8.5, 50 mM NaCl, 5 mM MgCl2, 1 mM EDTA, 1 mM TCEP) and 44 ul was added to the microtiter plate containing compound. S-Adenosyl-L-methionine (SAM) was prepared by combining ^3H labelled SAM with unlabelled SAM in PRMT5 assay buffer such that the final SAM concentration was 10 uM and the specific activity was 0.2 uCi/ul. The reaction was initiated by adding 5 ul of SAM stock to the microtiter plate. The final reaction conditions were 10 nM PRMT5/MEP50 complex, 200 nM peptide and 1 uM SAM. Following a 25 minute incubation at room temperature, the reaction was stopped with the addition of 100 uL of 20% TCA. The 3H-peptide product was captured using a 96-well filter plate (MSIPN4B, Millipore) and washed 5 times with PBS buffer. Scintillation fluid (100 ul) was added to the dried filter plate and counted in a liquid scintillation counter. IC50 values were determined by fitting the data to the standard 4-parameter dose response equation using Pfizer proprietary software.
In the final construct PRMT5 ORF was under control of polyhedrin promoter (polH) while MEP50 ORF was under control of p10 promoter.
Viruses were generated using standard Bac-to-Bac viral generation protocols (Life Technologies) and amplified to high-titer passage two (P2) stocks. Protein over expression was conducted in exponentially growing Sf21 cells infected at 2×106 with P2 viral stock at MOI=1 of PRMT5-Mep50 dual construct virus and Mep50 construct virus at 1:1 ratio. The co-expression protocol was used to supplement additional Mep50 for FlagPRMT5-Mep50 heterodimer formation. Cells were harvested at 72 h post infection by centrifugation and frozen pellet was stored at −80° C.
FlagPRMT5-Mep50 complex was purified from cell lysate using Flag affinity chromatography. Cell were lyzed in 50 mM Tris 7.5, 200 mM NaCl, 10% glycerol, 0.25 mM TCEP supplemented with EDTA-free protease inhibitor cocktail (Roche). 1.5 ml of lysis buffer was added per 1 g of frozen pellet. The clarified lysate was obtained by centrifugation of cell lysate at 10,000 g for 1 h at 4 C. 5 ml of Anti-FLAG M2 Agarose (Sigma) […] was added to the clarified lysate to isolate FlagPRMT5-Mep50. Following batch binding for 3 h at 4 C, Flag resin bound to FlagPRMT5-Mep50 washed with 20 column volumes (CV) of 50 mM Tris 7.5, 200 mM NaCl, 10% glycerol, 0.25 mM TCEP followed by elution of FlagPRMT5-Mep50 complex using 3 CV of 50 mM Tris 7.5, 200 mM NaCl, 10% glycerol, 0.25 mM TCEP supplemented with 200 ug/ml of FLAG Peptide ([…]). […] Peak fractions containing FlagPRMT5-Mep50 complex were concentrated to 1.6 mg/ml, flash frozen in small aliquots using liquid nitrogen and stored at −80° C.
As for `Cc1ncnc2c1ccn2[C@@H]1O[C@@H]([C@@H](O)c2ccc(F)cc2)[C@@H](O)[C@H]1O` [Example 75, (2S,3S,4R,5R)-2-((S)-(4-fluorophenyl)(hydroxy)methyl)-5-(4-methyl-7H-pyrrolo[2,3-d]pyrimidin-7-yl)tetrahydrofuran-3,4-diol], the pIC50 (as a rule, the negative decadic logarithm of the IC50, by convention in mol/L) was 4.66.
Then `Cc1ncnc2c1ccn2[C@@H]1O[C@@H]([C@H](O)c2ccc(F)cc2)[C@@H](O)[C@H]1O` [Example 76, (2S,3S,4R,5R)-2-((R)-(4-fluorophenyl)(hydroxy)methyl)-5-(4-methyl-7H-pyrrolo[2,3-d]pyrimidin-7-yl)tetrahydrofuran-3,4-diol], with 5.74; and `Cc1ncnc2c1ccn2[C@@H]1O[C@@H](c2ccn(C)n2)[C@@H](O)[C@H]1O` [Example 77, (2S,3S,4R,5R)-2-(1-methyl-1H-pyrazol-3-yl)-5-(4-methyl-7H-pyrrolo[2,3-d]pyrimidin-7-yl)tetrahydrofuran-3,4-diol], with 4.61.
For the compound `CCOCc1cc([C@@H]2O[C@@H](n3ccc4c(C)ncnc43)[C@H](O)[C@@H]2O)[nH]n1` [Example 78, (2S,3S,4R,5R)-2-(3-(ethoxymethyl)-1H-pyrazol-5-yl)-5-(4-methyl-7H-pyrrolo[2,3-d]pyrimidin-7-yl)tetrahydrofuran-3,4-diol], the pIC50 was 4.29.
`Cc1ncnc2c1ccn2[C@@H]1O[C@@H](C(O)CO)[C@@H](O)[C@H]1O` (stereo partly drawn) [Example 79, (2S,3S,4R,5R)-2-(1,2-dihydroxyethyl)-5-(4-methyl-7H-pyrrolo[2,3-d]pyrimidin-7-yl)tetrahydrofuran-3,4-diol] showed a negative logarithm of the IC50 (pIC50) of 5.28.
The compound `Nc1ncnc2c([C@@H]3O[C@H]([C@H](O)c4ccc(F)cc4)[C@@H](O)[C@H]3O)coc12` [Example 80, (2S,3R,4S,5R)-2-(4-aminofuro[3,2-d]pyrimidin-7-yl)-5-((R)-(4-fluorophenyl)(hydroxy)methyl)tetrahydrofuran-3,4-diol] gave a negative logarithm of the IC50 (pIC50) of 7.49.
Then `Cc1ncnc2c1ccn2[C@@H]1O[C@H]([C@H](O)c2ccccc2S(C)(=O)=O)[C@@H](O)[C@H]1O` [Example 81], with 4.04.
`Cc1ncnc2c1ccn2[C@@H]1O[C@@H]([C@H](C)O)[C@@H](O)[C@H]1O` [Example 89, (2S,3S,4R,5R)-2-((S)-1-hydroxyethyl)-5-(4-methyl-7H-pyrrolo[2,3-d]pyrimidin-7-yl)tetrahydrofuran-3,4-diol] gave a pIC50 of 5.76.
Then `Cc1ncnc2c1ccn2[C@@H]1O[C@@H](C(C)(C)O)[C@@H](O)[C@H]1O` [Example 90, (2R,3S,4R,5R)-2-(2-hydroxypropan-2-yl)-5-(4-methyl-7H-pyrrolo[2,3-d]pyrimidin-7-yl)tetrahydrofuran-3,4-diol], with 5.49; and `Cc1ncnc2c1ccn2[C@@H]1O[C@H](C(=O)c2ccc(F)c(F)c2)[C@@H](O)[C@H]1O` [Example 91, (3,4-difluorophenyl)((2S,3S,4R,5R)-3,4-dihydroxy-5-(4-methyl-7H-pyrrolo[2,3-d]pyrimidin-7-yl)tetrahydrofuran-2-yl)methanone], with 6.45.
`Cc1ncnc2c1ccn2[C@@H]1O[C@H]([C@@H](F)c2ccc(F)c(F)c2)[C@@H](O)[C@H]1O` [Example 93, (2S,3S,4R,5R)-2-((S)-(3,4-difluorophenyl)fluoromethyl)-5-(4-methyl-7H-pyrrolo[2,3-d]pyrimidin-7-yl)tetrahydrofuran-3,4-diol] had a negative-log IC50 (pIC50) of 6.52.
`Cc1ncnc2c1ccn2[C@@H]1O[C@H]([C@@H](N)c2ccc(F)c(F)c2)[C@@H](O)[C@H]1O` [Example 95, (2R,3S,4R,5R)-2-((S)-amino(3,4-difluorophenyl)methyl)-5-(4-methyl-7H-pyrrolo[2,3-d]pyrimidin-7-yl)tetrahydrofuran-3,4-diol] showed a pIC50 of 6.82. Against the preceding compound, the pIC50 is 0.30 log units higher.
Then `O[C@@H]1[C@H](O)[C@@H]([C@H](O)c2ccc(F)cc2)O[C@H]1n1ccc2c(C(F)F)ncnc21` [Example 96, (2R,3R,4S,5R)-2-(4-(difluoromethyl)-7H-pyrrolo[2,3-d]pyrimidin-7-yl)-5-((R)-(4-fluorophenyl)(hydroxy)methyl)tetrahydrofuran-3,4-diol], with 7.29.
Regarding `O[C@@H]1[C@H](O)[C@@H]([C@H](O)c2ccc(F)c(F)c2)O[C@H]1n1ccc2c(C(F)F)ncnc21` [Example 97, (2R,3R,4S,5R)-2-(4-(difluoromethyl)-7H-pyrrolo[2,3-d]pyrimidin-7-yl)-5-((R)-(3,4-difluorophenyl)(hydroxy)methyl)tetrahydrofuran-3,4-diol], the pIC50 was 7.52.
Then `Cc1ncnc2c1ccn2[C@@H]1O[C@H](Cc2ccc(F)cc2)[C@@H](O)[C@H]1O` [Example 100, (2R,3S,4R,5R)-2-(4-fluorobenzyl)-5-(4-methyl-7H-pyrrolo[2,3-d]pyrimidin-7-yl)tetrahydrofuran-3,4-diol], with 7.05; and `Nc1ncnc2c1c(F)cn2[C@@H]1O[C@H](Cc2ccc(F)cc2)[C@@H](O)[C@H]1O` [Example 101, (2R,3R,4S,5R)-2-(4-amino-5-fluoro-7H-pyrrolo[2,3-d]pyrimidin-7-yl)-5-(4-fluorobenzyl)tetrahydrofuran-3,4-diol], with 7.52.
Then `Nc1ncnc2c([C@@H]3O[C@H]([C@H](O)c4ccc(F)cc4)[C@@H](O)[C@H]3O)scc12` [Example 102, (2R,3R,4S,5R)-2-(4-aminothieno[3,4-d]pyrimidin-7-yl)-5-((R)-(4-fluorophenyl)(hydroxy)methyl)tetrahydrofuran-3,4-diol], with 6.52.
In turn, `C[C@@](O)(c1ccc(F)c(F)c1)[C@H]1O[C@@H](n2ccc3c(N)ncnc32)[C@H](O)[C@@H]1O` [Example 103, (2R,3R,4S,5S)-2-(4-amino-7H-pyrrolo[2,3-d]pyrimidin-7-yl)-5-((R)-1-(3,4-difluorophenyl)-1-hydroxyethyl)tetrahydrofuran-3,4-diol] had a negative-log IC50 (pIC50) of 8.70.
In the case of `C[C@](O)(c1ccc(F)c(F)c1)[C@H]1O[C@@H](n2ccc3c(N)ncnc32)[C@H](O)[C@@H]1O` [Example 104, (2R,3R,4S,5S)-2-(4-amino-7H-pyrrolo[2,3-d]pyrimidin-7-yl)-5-((S)-1-(3,4-difluorophenyl)-1-hydroxyethyl)tetrahydrofuran-3,4-diol], the negative logarithm of the IC50 (pIC50) is 6.83.
As for `C[C@@](O)(c1ccc(Cl)c(F)c1)[C@H]1O[C@@H](n2ccc3c(N)ncnc32)[C@H](O)[C@@H]1O` [Example 105, (2R,3R,4S,5S)-2-(4-amino-7H-pyrrolo[2,3-d]pyrimidin-7-yl)-5-((R)-1-(4-chloro-3-fluorophenyl)-1-hydroxyethyl)tetrahydrofuran-3,4-diol], the pIC50 is 8.70.
Then `C[C@](O)(c1ccc(Cl)c(F)c1)[C@H]1O[C@@H](n2ccc3c(N)ncnc32)[C@H](O)[C@@H]1O` [Example 106, (2R,3R,4S,5S)-2-(4-amino-7H-pyrrolo[2,3-d]pyrimidin-7-yl)-5-((S)-1-(4-chloro-3-fluorophenyl)-1-hydroxyethyl)tetrahydrofuran-3,4-diol], with 7.10; and `O[C@@H]1[C@H](O)[C@@H]([C@H](O)c2ccc(F)c(F)c2)O[C@H]1n1ccc2c(CF)ncnc21` [Example 107, (2R,3S,4R,5R)-2-((R)-(3,4-difluorophenyl)(hydroxy)methyl)-5-(4-(fluoromethyl)-7H-pyrrolo[2,3-d]pyrimidin-7-yl)tetrahydrofuran-3,4-diol], with 8.15.
